Experimental data: patent publication US20060057104A1, “Methods for stimulating tlr irf3 pathways for inducing anti-microbial, anti-inflammatory and anticancer responses” (THE Regents of the University of California Office of the …, priority 2002, published 2006)

System: BMMs
Experiment: Q-PCR gene expression in BMMs stimulated with TLR agonists (Example 1)
Assay type: cell-based, murine
Details: for immediate early upregulation of IFNβ, IP10 and RANTES: BMMs, lipid A 1 ng/mL, PGN 10 μg/mL, poly I:C 1 μg/ml, CpG 100 nM, 1 hr
Experimental: (C) BMM's were stimulated with the following TLR-agonists: lipid A (1 ng/mL), peptidoglycan (PGN) (10 μg/mL), poly I:C (I μg/ml), or CpG (100 nM) for 30 min, and cell extracts were used for an in vitro kinase assay using GST-c-jun as a substrate (upper left), identical simulations were repeated for I hr, and RNA was harvested, and used for Q-PCR analysis.
(A) BMMs were stimulated for the indicated time points with the following TLR-agonists: lipid A (1 ng/ml), PGN (20 μg/ml), poly I:C (1 μg/ml), or CpG (100 nM), and RNA was harvested and used for Q-PCR analysis.
Murine bone marrow-derived macrophages (BMMs) were differentiated from marrow from 6-10 week old C57B/6 mice as previously described (Chin, A. I., Dempsey, P. W., Beuhn, K., Miller, J. F., Xu, Y., and Cheng, G. (2002), Nature 416, 190-194). BMMs were maintained in 1× DMEM, 10% fetal bovine serum, 1% penicillin/streptomycin, and 30% L929 conditioned medium, and purity was assayed to be 94-99% CD11b^+. The RAW 264.7 murine macrophage cell line (ATCC: TIB-71) was maintained in 1× DMEM with 10% fetal bovine serum and 1% penicillin/streptomycin. […]
RNA was isolated for both Northern blotting and quantitative real-time PCR (Q-PCR) using a standard guanidium isothiocyanate method. […] For Q-PCR, RNA was quantitated and 2 μg of RNA was used to make cDNA templates using Superscript II (Invitrogen) according the manufactuors instruction with either oligo-dT or random hexamer as primers. […]
We then investigated the TLR-specificity of gene expression in BMMs using specific agonists for TLR4 (lipid A), TLR2 (peptioglycan), TLR3 (poly I:C) and TLR9 (CpG). In order to account for differences in binding affinity and receptor expression, the concentrations of TLR ligands used for stimulation were titrated to produce roughly equivalent activation of the JNK pathway as determined by GST-c-Jun in vitro kinase assay (FIG. 2C, upper left).

Row | Substance | gene induction in TLR4-null BMMs (BMMs from C57BL/10ScCr mice (null mutation in TLR4 gene)) | immediate early upregulation of IFNβ, IP10 and RANTES
1 | lipid A | No gene induction | immediate early upregulation
2 | poly I:C |  | immediate early upregulation
